Experimental data from the supplement of paper PMC10307832.

What was measured:
Test in all cases: relative viability (nuclei count vs DMSO), 5 days (fraction); higher = more cells survive
Tanzisertib + Pemetrexed = compound: O[C@H]1CC[C@H](Nc2ncc3nc(Nc4c(F)cc(F)cc4F)n([C@H]4CCOC4)c3n2)CC1 [Tanzisertib] + Nc1nc2[nH]cc(CCc3ccc(C(=O)N[C@@H](CCC(=O)O)C(=O)O)cc3)c2c(=O)[nH]1 [Pemetrexed] (partner 0.2 µM)
Procedure, shortened: (§1)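 The day after seeding in 1536-well plates, lung cancer cell lines were treated by pin tool with a single drug, or with a fixed anchor-drug dose together with five library-drug doses (not always all listed) in √10 steps. After 5 days, a combined fix-and-stain solution (final 0.05% Triton X-100, 1% formaldehyde, 1 ug/ml Hoechst) was added. Nuclei counted on 4× images gave relative viability as treated counts over vehicle counts, reported as the median of duplicate plates.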

Tanzisertib + Navitoclax = compound: O[C@H]1CC[C@H](Nc2ncc3nc(Nc4c(F)cc(F)cc4F)n([C@H]4CCOC4)c3n2)CC1 [Tanzisertib] + CC1(C)CCC(c2ccc(Cl)cc2)=C(CN2CCN(c3ccc(C(=O)NS(=O)(=O)c4ccc(N[C@H](CCN5CCOCC5)CSc5ccccc5)c(S(=O)(=O)C(F)(F)F)c4)cc3)CC2)C1 [Navitoclax] (partner 0.5 µM)
Procedure, shortened: as §1

Tanzisertib + Foretinib = compound: O[C@H]1CC[C@H](Nc2ncc3nc(Nc4c(F)cc(F)cc4F)n([C@H]4CCOC4)c3n2)CC1 [Tanzisertib] + COc1cc2c(Oc3ccc(NC(=O)C4(C(=O)Nc5ccc(F)cc5)CC4)cc3F)ccnc2cc1OCCCN1CCOCC1 [Foretinib] (partner 0.25 µM)
Procedure, shortened: as §1

Tanzisertib + Dasatinib = compound: O[C@H]1CC[C@H](Nc2ncc3nc(Nc4c(F)cc(F)cc4F)n([C@H]4CCOC4)c3n2)CC1 [Tanzisertib] + Cc1nc(Nc2ncc(C(=O)Nc3c(C)cccc3Cl)s2)cc(N2CCN(CCO)CC2)n1 [Dasatinib] (partner 0.075 µM)
Procedure, shortened: as §1

| Cell Line | relative viability (Tanzisertib + Pemetrexed; first compound 0.08 µM) | relative viability (Tanzisertib + Pemetrexed; first compound 0.253 µM) | relative viability (Tanzisertib + Pemetrexed; first compound 0.8 µM) | relative viability (Tanzisertib + Pemetrexed; first compound 2.53 µM) | relative viability (Tanzisertib + Pemetrexed; first compound 8 µM) | relative viability (Tanzisertib + Navitoclax; first compound 0.08 µM) | relative viability (Tanzisertib + Navitoclax; first compound 0.253 µM) | relative viability (Tanzisertib + Navitoclax; first compound 0.8 µM) | relative viability (Tanzisertib + Navitoclax; first compound 2.53 µM) | relative viability (Tanzisertib + Navitoclax; first compound 8 µM) | relative viability (Tanzisertib + Foretinib; first compound 0.08 µM) | relative viability (Tanzisertib + Foretinib; first compound 0.253 µM) | relative viability (Tanzisertib + Foretinib; first compound 0.8 µM) | relative viability (Tanzisertib + Foretinib; first compound 2.53 µM) | relative viability (Tanzisertib + Foretinib; first compound 8 µM) | relative viability (Tanzisertib + Dasatinib; first compound 0.08 µM) | relative viability (Tanzisertib + Dasatinib; first compound 0.253 µM) | relative viability (Tanzisertib + Dasatinib; first compound 0.8 µM) | relative viability (Tanzisertib + Dasatinib; first compound 2.53 µM) | relative viability (Tanzisertib + Dasatinib; first compound 8 µM) |
| --- | --- | --- | --- | --- | --- | --- | --- | --- | --- | --- | --- | --- | --- | --- | --- | --- | --- | --- | --- | --- |
| LK-2 | 0.294 | 0.273 | 0.161 | 0.234 | 0.244 | 0.871 | 0.847 | 0.87 | 0.884 | 0.9 | 1.26 | 1.01 | 1.11 | 1.03 | 1.46 | 0.281 | 0.287 | 0.318 | 0.28 | 0.207 |
| LOU-NH91 | 0.42 | 0.42 | 0.399 | 0.403 | 0.387 | 0.81 | 0.664 | 0.747 | 0.675 | 0.497 | 0.914 | 0.946 | 0.903 | 0.87 | 0.639 | 0.597 | 0.585 | 0.564 | 0.515 | 0.391 |
| LU99A | 0.167 | 0.191 | 0.172 | 0.159 | 0.19 | 0.713 | 0.847 | 0.879 | 0.743 | 0.781 | 0.828 | 0.81 | 0.798 | 0.765 | 0.837 | 0.585 | 0.629 | 0.556 | 0.557 | 0.496 |
| LXF-289 | 0.902 | 0.923 | 1.01 | 0.915 | 1.02 | 1.05 | 0.917 | 1 | 0.962 | 1.03 | 1.02 | 1.01 | 1.06 | 0.989 | 1.03 | 0.233 | 0.202 | 0.222 | 0.212 | 0.215 |
| NCI-H23 | 0.785 | 0.761 | 0.682 | 0.681 | 0.584 | 0.964 | 0.75 | 0.912 | 0.86 | 0.819 | 1.01 | 1.07 | 0.996 | 0.952 | 1.02 | 0.918 | 0.814 | 0.726 | 0.694 | 0.51 |
| NCI-H322M | 0.644 | 0.657 | 0.566 | 0.621 | 0.548 | 1.34 | 1.12 | 1.11 | 1.16 | 1.16 | 1.02 | 0.962 | 0.886 | 0.961 | 0.97 | 0.243 | 0.248 | 0.275 | 0.249 | 0.262 |
| NCI-H441 | 0.27 | 0.241 | 0.286 | 0.24 | 0.27 | 0.456 | 0.601 | 0.629 | 0.773 | 0.584 | 0.488 | 0.797 | 1.03 | 0.994 | 0.752 | 0.625 | 0.499 | 0.605 | 0.479 | 0.521 |
| NCI-H460 | 0.0668 | 0.0601 | 0.0628 | 0.0601 | 0.0429 | 1.32 | 1.21 | 0.986 | 1.2 | 1.24 | 1.05 | 1.03 | 0.884 | 1.07 | 1.01 | 0.595 | 0.595 | 0.489 | 0.474 | 0.303 |
| NCI-H520 | 0.589 | 0.714 | 0.67 | 0.561 | 0.642 | 1.12 | 1.1 | 1.1 | 1.01 | 1.11 | 0.792 | 0.734 | 0.83 | 0.753 | 0.757 | 0.233 | 0.207 | 0.232 | 0.192 | 0.23 |
| NCI-H596 | 0.506 | 0.538 | 0.515 | 0.516 | 0.467 | 0.978 | 0.91 | 0.972 | 0.888 | 0.96 | 0.723 | 0.82 | 0.724 | 0.699 | 0.76 | 0.673 | 0.614 | 0.541 | 0.53 | 0.459 |
| NCI-H647 | 0.204 | 0.185 | 0.18 | 0.151 | 0.156 | 1.11 | 1.18 | 1.22 | 1.3 | 0.943 | 1.23 | 1.25 | 1.11 | 1.29 | 1.12 | 0.226 | 0.201 | 0.142 | 0.189 | 0.149 |
| NCI-H838 | 0.234 | 0.255 | 0.254 | 0.233 | 0.25 | 1.18 | 1.15 | 1.26 | 1.18 | 1.12 | 1.1 | 1.01 | 1.11 | 1.02 | 0.937 | 0.355 | 0.324 | 0.3 | 0.328 | 0.31 |
| NCI-H1355 | 1.07 | 1.06 | 1.05 | 1.07 | 1.03 | 0.954 | 0.923 | 0.961 | 0.985 | 0.944 | 1.03 | 0.961 | 0.965 | 1.04 | 0.948 | 0.757 | 0.757 | 0.78 | 0.628 | 0.707 |
| NCI-H1395 | 0.868 | 0.88 | 0.971 | 0.939 | 0.788 | 1.05 | 1.27 | 1.43 | 1.1 | 1.01 | 1.06 | 0.941 | 0.96 | 0.945 | 0.966 | 0.439 | 0.428 | 0.406 | 0.437 | 0.375 |
| NCI-H1437 | 0.321 | 0.327 | 0.322 | 0.315 | 0.263 | 1.14 | 1.1 | 1.08 | 1.13 | 1.08 | 1.26 | 1.31 | 1.32 | 1.42 | 1.29 | 0.527 | 0.465 | 0.393 | 0.365 | 0.439 |
